Laboratory results taken from patent publication US11684614B2, “Formulations of hydroxypyridonate actinide/lanthanide decorporation agents” (priority 2017, dated 2023).
Several values for one entry are separate records, joined by “and”; a condition that tells them apart may be missing. Identical values can stand only once.

Test: Repeated-treatment efficacy for removing an intravenous dose of 238Pu (excretion, tissue retention, clinical observations), female and male arms;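 as to % Recovered Dose ART: abdominal tissue remainder incl GI tract reproductive organs spleen bladder and fat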
Type: in vivo, Swiss-Webster mice
Conditions: listed as 3,4,3-LI(1,2-HOPO); for % Recovered Dose Kidney / % Recovered Dose Liver / % Recovered Dose SKEL / % Recovered Dose SOFT / % Recovered Dose Total Feces / % Recovered Dose ART / % Recovered Dose Combined Body / % Recovered Dose Combined Excreta / % Recovered Dose Total Urine / % Recovered Dose GI Tract / % Recovered Dose Soft Tissue / % Recovered Dose Total Bone: male animals
Protocol: The objective of this study was to characterize the efficacy of 3,4,3-L1(1,2-HOPO) at enhancing elimination from an internal plutonium burden in female and male Swiss-Webster mice administered a soluble citrate complex of ^238Pu and treated multiple times, starting at 24 hours after the exposure. Efficacy was evaluated by comparing the tissue contents, urinary and fecal excretions of ^238Pu in treated animals versus untreated animals.
The medical countermeasure 3,4,3-L1(1,2-HOPO) was administered parenterally (ip) or orally (po) via consecutive injections or gavages (six daily or twelve twice daily) starting at 24 hours post contamination at the following four selected doses: 30 μmol/kg ip, 150 μmol/kg po, 300 μmol/kg po, and 600 μmol/kg po (equivalent to respective approximate human doses range of […], using the accepted conversion system of mouse doses into human equivalent doses—HED—based on body surface area). Oral doses also included the permeability enhancer selected during formulation development work.
• Challenge isotope: ^238Pu • Challenge dose: 25 nCi (i.e., approximately 0.8 μCi/kg) • Route of contamination: Intravenous (iv) tail-vein • Route of treatment: Intraperitoneal Injection (ip) or Oral (po) • Frequency of treatment: Multiple (once- or twice-daily for 6 days) doses, starting 24 hr postcontamination • Treatment dose calculation: Dose calculations (mg/kg or μmol/kg) for the decorporation agent were based on the individual body weight measured after contamination. • Study Duration: 11 days, in-life
c. […] Test article and control dose formulations were prepared within 1 day of dose administration, by weighing out the appropriate amount of test article, dispersing in vehicle. For ip solutions, the test article was used alone, while for oral suspensions, a mixture of test article and excipient (90:10, w:w) was used. The pH was adjusted to 7.0-7.4 for ip administration and 5.0-5.5 for oral administration with sterile NaOH. Dose formulations were prepared at room temperature and filter-sterilized. • Storage: 2-8° C.; refrigerated; protected from light. • Characterization: The concentration of each test article formulation was verified by high-performance liquid chromatography-mass spectrometry. • Test Article Handling: Test, reference, and control article formulations were handled with the use of eye protection, gloves, and a protective laboratory coat. • Correct Dose Assurance: The test article was weighed with calibrated balances. The administration of each dose formulation was properly documented, and the amount administered to each animal recorded.
e. Experimental Procedures (In-Life Evaluations and Euthanasia) • Contamination: Single administration by intravenous (iv) tail-vein injection (0.2 mL injection volume) under isoflurane anesthesia. Three standard 0.2 mL injections were performed into polyethylene bottles and pre-loaded with aliquots of concentrated nitric acid on each injection day. Six female and six male mice were culled for necropsy 1 hr post-contamination and were used as standards. A11 standards were processed and counted together with the final samples to allow verification of the contamination dose. • Dose Administration: Single administration by intraperitoneal injection (ip) or oral gavage (po) under isoflurane anesthesia. • Mortality/Morbidity: Assessed at least once daily. • Clinical Observations: Recorded once daily (4 hr post-dose on day of treatment), or more often as clinical signs warranted. […]

[1] = Day-11 necropsy, animal group I
[2] = Day-11 necropsy, animal group L
[3] = Day-11 necropsy, animal group M
[4] = male arm table, Day 11 necropsy, animal group I
[5] = male arm table, Day 11 necropsy, animal group L
[6] = male arm table, Day 11 necropsy, animal group M

O=C(NCCCN(CCCCN(CCCNC(=O)c1cccc(=O)n1O)C(=O)c1cccc(=O)n1O)C(=O)c1cccc(=O)n1O)c1cccc(=O)n1O [3,4,3-L1(1,2-HOPO)]
% Recovered Dose Kidney (Day-7 necropsy, animal group C): 0.22% and 0.15% and 0.21% and 0.17%
% Recovered Dose Liver (Day-7 necropsy, animal group C): 15.72% and 12.80% and 16.24% and 16.85%
% Recovered Dose SKEL (Day-7 necropsy, animal group C): 24.75% and 21.49% and 23.68% and 17.13%
% Recovered Dose SOFT (Day-7 necropsy, animal group C): 2.28% and 2.12% and 3.24% and 2.82%
% Recovered Dose Total Feces (Day-7 necropsy, animal group C): 34.40% and 32.67% and 50.44% and 35.35%
% Recovered Dose ART (Day-7 necropsy, animal group E): 1.02% and 1.34% and 1.21% and 1.33%
% Recovered Dose Combined Body (Day-7 necropsy, animal group E): 30.49% and 40.14% and 34.97% and 37.95%
% Recovered Dose Combined Excreta (Day-7 necropsy, animal group E): 69.51% and 59.86% and 65.03% and 62.05%
% Recovered Dose Kidney (Day-7 necropsy, animal group E): 0.14% and 0.21% and 0.13% and 0.20%
% Recovered Dose Liver (Day-7 necropsy, animal group E): 9.72% and 15.67% and 11.76% and 13.58%
% Recovered Dose SKEL (Day-7 necropsy, animal group E): 17.72% and 20.95% and 20.71% and 20.84%
% Recovered Dose SOFT (Day-7 necropsy, animal group E): 1.89% and 1.96% and 1.16% and 2.00%
% Recovered Dose Total Feces (Day-7 necropsy, animal group E): 40.90% and 40.04% and 39.60% and 39.91%
% Recovered Dose Total Urine (Day-7 necropsy, animal group E): 28.61% and 19.82% and 25.43% and 22.13%
% Recovered Dose ART (Day-7 necropsy, animal group F): 1.03% and 1.92% and 2.25% and 1.33%
% Recovered Dose Combined Body (Day-7 necropsy, animal group F): 30.37% and 39.36% and 36.59% and 31.04%
% Recovered Dose Combined Excreta (Day-7 necropsy, animal group F): 69.63% and 60.64% and 63.41% and 68.96%
% Recovered Dose Kidney (Day-7 necropsy, animal group F): 0.17% and 0.21% and 0.42%
% Recovered Dose Liver (Day-7 necropsy, animal group F): 7.14% and 17.14% and 15.20% and 10.27%
% Recovered Dose SKEL (Day-7 necropsy, animal group F): 20.00% and 18.02% and 16.63% and 16.58%
% Recovered Dose SOFT (Day-7 necropsy, animal group F): 2.03% and 2.08% and 2.10% and 2.66%
% Recovered Dose Total Feces (Day-7 necropsy, animal group F): 42.75% and 36.05% and 44.44% and 38.86%
% Recovered Dose Total Urine (Day-7 necropsy, animal group F): 26.88% and 24.59% and 18.97% and 30.09%
% Recovered Dose Combined Body [1]: 15.90% and 20.53% and 19.46% and 22.16% and 16.51% and 22.02% and 21.03% and 23.25%
% Recovered Dose Combined Excreta [1]: 84.10% and 79.47% and 80.54% and 77.84% and 83.49% and 77.98% and 78.97% and 76.75%
% Recovered Dose GI Tract [1]: 0.43% and 0.47% and 0.44% and 0.49% and 0.64% and 0.58% and 0.71%
% Recovered Dose Kidney [1]: 0.08% and 0.11% and 0.10% and 0.14% and 0.13% and 0.16%
% Recovered Dose Liver [1]: 2.60% and 1.91% and 2.22% and 2.29% and 3.02% and 2.09% and 2.92% and 2.34%
% Recovered Dose Soft Tissue [1]: 1.04% and 0.98% and 0.83% and 1.42% and 1.37% and 1.22% and 1.20%
% Recovered Dose Total Bone [1]: 11.74% and 17.07% and 15.87% and 17.81% and 11.38% and 18.21% and 16.06% and 19.05%
% Recovered Dose Total Feces [1]: 54.04% and 60.47% and 51.78% and 38.48% and 49.18% and 43.78% and 44.59% and 43.58%
% Recovered Dose Combined Body [2]: 38.48% and 43.87% and 28.88% and 28.44% and 32.53% and 32.57% and 26.76% and 36.08%
% Recovered Dose Combined Excreta [2]: 61.52% and 56.13% and 71.12% and 71.56% and 64.47% and 67.43% and 73.24% and 63.92%
% Recovered Dose GI Tract [2]: 0.99% and 1.04% and 1.13% and 1.03% and 1.21% and 0.97% and 0.90% and 0.93%
% Recovered Dose Kidney [2]: 0.10% and 0.15% and 0.19% and 0.14%
% Recovered Dose Soft Tissue [2]: 2.91% and 2.09% and 2.06% and 2.29% and 2.57% and 2.02% and 1.97% and 1.69%
% Recovered Dose Total Bone [2]: 25.77% and 24.60% and 16.37% and 19.43% and 22.08% and 18.56% and 15.85% and 25.23%
% Recovered Dose Total Feces [2]: 41.70% and 35.40% and 43.87% and 46.74% and 38.04% and 37.30% and 46.07% and 33.53%
% Recovered Dose Total Urine [2]: 19.82% and 20.73% and 27.24% and 24.82% and 26.43% and 30.12% and 27.17% and 30.39%
% Recovered Dose Combined Body [3]: 20.04% and 21.39% and 28.64% and 34.45% and 33.00% and 30.60% and 25.58% and 27.62%
% Recovered Dose Combined Excreta [3]: 79.96% and 78.61% and 71.36% and 65.55% and 67.00% and 69.40% and 74.42% and 72.38%
% Recovered Dose GI Tract [3]: 0.61% and 0.50% and 0.89% and 0.48% and 0.99% and 1.00% and 0.73% and 0.76%
% Recovered Dose Kidney [3]: 0.08% and 0.17% and 0.28% and 0.16% and 0.25% and 0.24% and 0.20% and 0.13%
% Recovered Dose Liver [3]: 3.86% and 3.49% and 8.37% and 6.17% and 12.45% and 9.96% and 3.83% and 6.08%
% Recovered Dose Soft Tissue [3]: 1.50% and 1.55% and 1.52% and 2.24% and 2.53% and 2.16% and 2.01% and 1.95%
% Recovered Dose Total Bone [3]: 13.99% and 15.68% and 17.58% and 25.41% and 16.78% and 17.24% and 18.80% and 18.71%
% Recovered Dose Total Feces [3]: 53.86% and 46.68% and 46.45% and 35.88% and 40.81% and 59.45% and 36.72% and 39.43%
% Recovered Dose Urine per Day, Day 2 [4]: 3.96% and 5.51% and 4.41% and 4.63% and 4.05% and 5.30% and 3.86% and 5.05%
% Recovered Dose Urine per Day, Day 3 [4]: 1.65% and 1.23% and 3.48% and 2.00% and 1.41% and 1.46% and 1.93%
% Recovered Dose Urine per Day, Day 4 [4]: 0.77% and 0.85% and 0.98% and 1.08% and 0.65% and 0.92% and 0.89% and 0.93%
% Recovered Dose Urine per Day, Day 5 [4]: 0.94% and 0.87% and 0.59% and 0.63% and 0.79% and 0.76% and 0.28% and 1.05%
% Recovered Dose Urine per Day, Day 6 [4]: 0.65% and 0.41% and 0.44% and 0.32% and 0.35% and 0.48% and 0.51% and 0.55%
% Recovered Dose Urine per Day, Day 7 [4]: 0.87% and 1.16% and 0.64% and 0.59% and 0.75% and 0.99% and 1.27%
% Recovered Dose Urine per Day, Day 8 [4]: 0.32% and 0.70% and 0.71% and 0.52% and 0.77% and 0.79% and 0.51%
% Recovered Dose Urine per Day, Day 9 [4]: 0.20% and 0.51% and 0.73% and 0.48% and 0.39% and 0.60% and 0.63%
% Recovered Dose Urine per Day, Day 10 [4]: 0.58% and 0.74% and 0.92% and 0.42% and 0.40% and 0.38% and 0.41%
% Recovered Dose Urine per Day, Day 11 [4]: 0.39% and 0.44% and 0.55% and 0.31% and 0.43% and 0.00% and 0.71%
% Recovered Dose Urine per Day, Day 1 [5]: 12.59% and 16.03% and 21.48% and 17.40% and 21.11% and 22.45% and 21.35% and 20.51%
% Recovered Dose Urine per Day, Day 2 [5]: 2.90% and 1.60% and 1.70% and 2.41% and 1.15% and 2.95% and 2.14% and 3.00%
% Recovered Dose Urine per Day, Day 3 [5]: 1.04% and 0.84% and 1.21% and 0.62% and 1.08% and 1.06% and 0.54% and 1.49%
% Recovered Dose Urine per Day, Day 4 [5]: 0.50% and 0.38% and 0.59% and 0.77% and 0.45% and 0.81% and 0.67% and 1.28%
% Recovered Dose Urine per Day, Day 5 [5]: 0.64% and 0.28% and 0.60% and 0.52% and 0.67% and 0.50% and 0.69%
% Recovered Dose Urine per Day, Day 6 [5]: 0.60% and 0.06% and 0.37% and 0.49% and 0.33% and 0.48% and 0.43%
% Recovered Dose Urine per Day, Day 7 [5]: 0.61% and 0.22% and 0.72% and 1.23% and 0.46% and 0.44% and 0.51% and 0.75%
% Recovered Dose Urine per Day, Day 8 [5]: 0.30% and 0.16% and 0.05% and 0.55% and 0.60% and 0.62%
% Recovered Dose Urine per Day, Day 9 [5]: 0.21% and 0.30% and 0.20% and 0.22% and 0.55% and 0.27% and 0.25% and 0.67%
% Recovered Dose Urine per Day, Day 10 [5]: 0.24% and 0.45% and 0.12% and 0.20% and 0.21% and 0.30% and 0.34% and 0.63%
% Recovered Dose Urine per Day, Day 11 [5]: 0.20% and 0.41% and 0.40% and 0.14% and 0.18% and 0.34% and 0.31%
% Recovered Dose Urine per Day, Day 2 [6]: 2.27% and 2.99% and 2.82% and 2.73% and 2.07% and 4.97% and 3.05%
% Recovered Dose Urine per Day, Day 3 [6]: 0.81% and 1.49% and 1.40% and 1.64% and 1.14% and 1.43% and 1.07% and 1.00%
% Recovered Dose Urine per Day, Day 4 [6]: 0.47% and 0.64% and 0.77% and 0.68% and 0.62% and 0.31% and 0.58% and 0.72%
